What was measured:
[1] = system: salivatory effect of oxotremorine; test: Potentiation of the cholinergic effects of oxotremorine: salivatory (peripheral) effect; assay type: in vivo, male NMRI mice; details: mice
Method: (§1) 1. Potentiation of the cholinergic effects of oxotremorine. […] The degree of peripheral cholinergic activation is measured by the salivatory effect quantified by the following rating system:
score 1: a little saliva is found around the teeth:
score 2: the saliva forms a narrower band around the mouth;
score 4: the saliva wets a surface underneath the chin;
score 6: the saliva runs from the mouth, for example onto the forelegs.
The intermediate scores are not used, and the saliva is wiped away after each observation.
(§2) Male NMRI mice (20 to 25 g) are divided into four groups of five animals, that is to say: one control group and three treated groups. The compound to be tested is administered intraperitoneally (to the three treated groups) 20 minutes before the administration of the oxotremorine, at a dose which differs for each of the treated groups. […] For each of the groups, the individual scores recorded at each observation period are summed; this enables to plot a curve showing the sum of the scores as a function of time, which is characteristic for each group.
(§3) The mean values of the areas under the curves obtained for each of the treated groups are compared with the mean value of the area under the curve corresponding to the control group and is subjected to statistical analysis by the Mann-Whitney method. From this comparison, a "minimum active dose" can be determined. […]

[2] = system: tremogenic effect of oxotremorine; test: Potentiation of the cholinergic effects of oxotremorine: tremogenic (central) effect; assay type: in vivo, male NMRI mice; details: mice
Method: as §1
The degree of central cholinergic activation is measured by the tremogenic effect quantified by the following rating system:
score 1: slight and periodic occasional tremors;
score 2: moderate and slight tremors often repeated;
score 4: accentuated tremors, but interrupted by periods of calm:
score 6: very accentuated and almost continuous tremors.
as §2, §3

[3] = system: effects of scopolamine on the band from 6.4 to 9.6 Hz in the EEG; test: Inhibition of the effects of scopolamine on the electroencephalogram (EEG); assay type: in vivo, male albino Sprague-Dawley rats; design: inhibition: dose or concentration left out as unconfirmed
Method: Male albino Sprague-Dawley SPF rats (160 to 200 g) are used in this test. When the animals are 3 months old, 5 cortical electrodes are implanted permanently, aseptically and under a general anesthesia: one inert electrode, one left and one right frontal electrode, and one left and one right occipital electrode (P. ETEVENON, loc.cit.). The test is carried out when the animals are about 15 months old. In the meantime, the animals are kept in individual cages. They are given water and food ad libitum and are subjected to a regular daily cycle comprising a period of darkness between 6 o'clock in the evening and 6 o'clock in the morning. At the same time, the animals are progressively acclimatized to the cages of the sound-proof cabin which they will subsequently occupy for recording of the electroencephalograms, as well as to the experimental conditions, by intraperitoneal administration of placebo. The products are administered immediately before the EEG is recorded. The rats are divided into groups of 8 animals and 16 samples of the EEG spectra are recorded over 5 seconds (two EEG spectra per animal). The spectra obtained are then analyzed by computer (rapid Fourier transform), which enables the average of the 16 measurements performed to be determined for each group and the overall intensity of the EEG spectrum and the distribution of this intensity (in %) in the various frequency bands to be deduced for each animal. This operation (recording of the spectra) is repeated 9 times (total

[4] = system: amnesia induced by scopolamine; test: Multiple-trial passive avoidance: mnemic retention, amnesia induced by scopolamine; assay type: in vivo, male Sprague-Dawley rats; details: rats
Method: 4. Multiple-trial passive avoidance. The compounds of the present invention have been studied with the aim of
Columns 3 and 4 show the results obtained in the test used to evaluate the learning. The figures indicate the average number of trials needed for a control animal (group 1) or an animal treated (group 2) with the compound to learn to remain on the rubber mat for 180 seconds in order to avoid the electric shock. The results were analyzed by the Student test.

[5] = system: hyperactivity induced by scopolamine; test: Inhibition of hyperactivity induced by scopolamine; assay type: in vivo, male Sprague-Dawley rats; details: rats, administered more than 15 minutes before the measurements
[6] = 20 minutes after administration at the minimum active dose

Compound: COC(=O)C1=CCCN(C)C1 [arecoline, methyl 1,2,5,6-tetrahydro-1-methyl-3-pyridinecarboxylate]
- potentiation of the salivatory effect of oxotremorine 20 minutes after administration [1, 6]: gives no potentiation
- potentiation of the tremogenic effect of oxotremorine 20 minutes after administration [2, 6]: gives no potentiation

Compound: O=C1CCCN1CC#CCN1CCCC1 [oxotremorine]
- minimal effective dose ([1]; Mus musculus, ip, intraperitoneal, read-out: minimum dose of oxotremorine which causes salivation): ~0.05 mg/kg
- minimal effective dose ([2]; Mus musculus, ip, intraperitoneal, read-out: minimum dose of oxotremorine which causes tremors): ~0.05 mg/kg

Compound: CNC(=O)Oc1ccc2c(c1)[C@]1(C)CCN(C)[C@@H]1N2C [physostigmine, reference compound]
- inhibition ([3]; Rattus norvegicus, ip, read-out: Inhibition (percentage of reduction in the increase in the intensity of the band from 6.4 to 9.6 Hz)): 76.8%
- inhibition of the effects which scopolamine exerts on the electroencephalogram ([3]; rats, i.p.): inhibit the effects which scopolamine exerts on the electroencephalogram
- influence on the amnesing effect of scopolamine ([4]; i.p., group 4 vs. group 3): favorable action against the amnesing effect of scopolamine, similar to that of the compounds of the invention
- inhibitory activity on scopolamine hyperactivity, administered more than 15 minutes before measurements [5]: inactive

Compound: CN1[C@@H]2C[C@@H](OC(=O)[C@H](CO)c3ccccc3)C[C@H]1[C@@H]1O[C@@H]12 [scopolamine]
- amnesing effect ([4]; group 3, scopolamine alone): very pronounced

From US4956367A, “2-amino-4-morpholino-6-propyl-1,3,5-triazines” (U C B S.A., priority 1988, dated 1990)
